Test results published in PubChem BioAssay AID2060364.
pIC50: −log10 of the molar value.

System: JHH-NF1-GBM1 glioma viability, PrestoBlue fluorescence, 120 h
Assay: growth inhibition of ATRX-deficient high-grade glioma cells – cell-based, JHH-NF1-GBM1, PrestoBlue, dose response (AID 2060364)

pIC50: 5.32
Compound: O=[N+]([O-])c1c(NCCO)cc(Sc2nc3ccccc3s2)c2nonc12
